Read-outs that look alike come from different tables or passages of the source.
What was measured:
C. crescentus CB15N [1] = experiment: MIC of bacterial growth, macrodilution (Table 2); type: cell-based, Caulobacter crescentus; details: actively growing cells
Procedure: Bacterial strains and growth conditions. Luria-Bertani (LB) media (10 g/L tryptone, 10 g/L NaCl, 5 g/L yeast extract, pH 7.2) was used to grow B. subtilis 168, S. aureus FRI100, and P. aeruginosa K1115 strains. For P. aeruginosa PAO1 and K1119 strains and two E. coli BW25113 strains, M8 minimal media (241 mg/L MgSO4, 4 mg/L glucose, 5 mg/L casamino acids, 12.8 g/L Na2HPO4.7H2O, 3 g/L KH2PO4, and 0.5 g/L NaCl) was used. PYE media (2 g/L peptone, 1 g/L yeast extract, 0.8 mM MgSO4, and 0.5 mM CaCl2) was used for culturing C. crescentus cells at 30° C. All cultures were grown at 37° C., except for C. crescentus (30° C.). All cultures were grown while shaking at 200 rpm.
Determination of the minimum inhibitory concentration (MIC) of bacterial growth. The MIC of various organisms in liquid media was determined using the macrodilution method according to the NCCLS guidelines. For the starting inoculum, cultures were diluted to contain approximately 5×10^5 cells/mL in growth media. To create a two-fold dilution series for the macrodilution technique, each compound was added to the first culture tube (4 mL total volume) at the highest concentration. 2 mL of this culture was diluted into an equal volume of inoculated media (a two-fold dilution). The final volume for each culture was 2 mL.

C. crescentus CB15N [2] = experiment: Minimum stationary-bactericidal concentration (MSC); type: cell-based, Caulobacter crescentus; details: C. crescentus CB15N, stationary cells, 24 hours
Procedure: (§1) Determination of the Minimum Stationary-Bactericidal Concentration.
(§2) Cultures of C. crescentus (24 hour incubation) and S. aureus cells (5 day incubation) were grown from single colonies. Cells were collected by centrifugation (8500 rpm for 2.5 minutes) and re-suspended in M2 salt solution (for C. crescentus; 1.74 g/L Na2HPO4, 1.06 g/L KH2PO4, and 0.5 g/L NH4Cl) or phosphate-buffered saline (for S. aureus; PBS, Fisher Scientific). The centrifugation and re-suspension was repeated two more times. After the repeated washing steps, the cell suspension was diluted 10-fold to achieve approximately 10^8 cells/mL. Aliquots of the diluted cell suspension were transferred into wells of a 96-well plate (100 μL/well), and 2-fold serial dilutions were performed to test a range of antibiotic concentrations. The plate was sealed with Parafilm® and incubated for 24 hours at room temperature in the dark. After incubation, 50 μl was removed from each well to spread on nutrient agar plates (1.5% agar in PYE for C. crescentus, and LB for S. aureus). The colonies on each plate were counted after growing the cells for 1-2 days. For determining the kinetics of bactericidal activity of DCAP on stationary cultures, the washed cells were diluted by 100-fold in appropriate solutions and tested using a single concentration of the compound while including a DMSO control sample. Cell suspensions were kept in closed microcentrifuge tubes instead of the wells of 96-well plates. 100 μL of the suspensions was removed for plating at each time point. All MSC experiments were performed in static conditions.
(§3) In addition to its activity against actively growing bacteria, DCAP kills cells in stationary phase (Table 3). This property was tested against C. crescentus and S. aureus. […] To ensure that bacteria were deprived of nutrients, the cells were grown into late stationary phase (i.e., 24 hours for C. crescentus and 5 days for S. aureus). These cells were collected, suspended in isotonic solutions devoid of amino acids or sugars, and treated with a small molecule (DMSO, DCAP, CCCP or ampicillin). Cell viability was measured over time by plating culture aliquots on non-selective, solid growth media. The minimum concentration of antibiotic required to completely eliminate colony formation was designated as the minimum stationary-bactericidal concentration (MSC). […] CCCP inhibited the proliferation of C. crescentus cells regardless of their physiological status. However, the MSC of CCCP for S. aureus was >300-fold higher than the MIC. This dramatic decrease in the effectiveness of CCCP in S. aureus may be due to changes in membrane composition as cells adjust their metabolism in nutrient-deprived conditions.

S. aureus FRI 100 [3] = experiment: as above; type: cell-based, Staphylococcus aureus; details: S. aureus FRI 100, stationary cells, 24 hours
Procedure: as §1, §2, §3

C. crescentus CB15N [4] = experiment: Minimum biofilm inhibitory concentration (bMIC); type: cell-based, Caulobacter crescentus
Procedure: (§4) Determination of the minimum biofilm inhibitory concentration of growth (bMIC) and biofilm eradication concentration (MBEC). Overnight cultures of C. crescentus and S. aureus were grown and diluted 100-fold into appropriate nutrient media. Aliquots of the diluted suspension were transferred into wells of 96-well plates (150 μL/well). 2-fold serial dilutions were performed for compound-containing wells. For every experiment, three replicates for each compound concentration tested were included. After transferring aliquots of the suspension, the plates were closed with specialized lids that have protruding pins (Nunc STP System), and the plates were sealed using Parafilm®. The plates were incubated in a static incubator at 30° C. (C. crescentus) or 37° C. (S. aureus) for 24 hours. After the cells had formed biofilms on the surface of the pins, the pins were rinsed by dipping them in M2 (C. crescentus) or PBS (S. aureus) solutions. To rinse the pins, clean, sterile 96-well plates were used (aliquots of 200 μL/well); each rinse lasted 10 sec. After washing away planktonic cells loosely bound to biofilms, the pins were inserted into a 96-well plate that was pre-aliquoted with nutrient media containing antibiotics (2-fold dilutions, a final volume of 150 μL/well). The plates were sealed with Parafilm®, and incubated for 17 hours, and the bMIC was measured at the end of the incubation by visual inspection. […] The plates were sealed with Parafilm®, incubated for 24 hours, and the MBEC was measured at the end of the incubation by visual inspection.
(§5) Membrane-active compounds are also efficient at eradicating biofilm-associated cells (Table 2). […] To determine the efficacy of antibiotics against biofilms, the minimum biofilm inhibitory concentration (bMIC) and the minimum biofilm eradication concentration (MBEC) were measured. […] After 24 hours of exposure to compounds, the lowest concentration of antibiotic that inhibited planktonic cell growth in the wells (bMIC) was determined.

S. aureus FRI 100 [5] = experiment: Minimum biofilm inhibitory concentration (bMIC); type: cell-based, Staphylococcus aureus; details: S. aureus FRI 100 biofilm
Procedure: as §4, §5

C. crescentus CB15N [6] = experiment: Minimum biofilm eradication concentration (MBEC); type: cell-based, Caulobacter crescentus
Procedure: (§6) Determination of the minimum biofilm inhibitory concentration of growth (bMIC) and biofilm eradication concentration (MBEC). Overnight cultures of C. crescentus and S. aureus were grown and diluted 100-fold into appropriate nutrient media. Aliquots of the diluted suspension were transferred into wells of 96-well plates (150 μL/well). 2-fold serial dilutions were performed for compound-containing wells. For every experiment, three replicates for each compound concentration tested were included. After transferring aliquots of the suspension, the plates were closed with specialized lids that have protruding pins (Nunc STP System), and the plates were sealed using Parafilm®. The plates were incubated in a static incubator at 30° C. (C. crescentus) or 37° C. (S. aureus) for 24 hours. After the cells had formed biofilms on the surface of the pins, the pins were rinsed by dipping them in M2 (C. crescentus) or PBS (S. aureus) solutions. To rinse the pins, clean, sterile 96-well plates were used (aliquots of 200 μL/well); each rinse lasted 10 sec. After washing away planktonic cells loosely bound to biofilms, the pins were inserted into a 96-well plate that was pre-aliquoted with nutrient media containing antibiotics (2-fold dilutions, a final volume of 150 μL/well). The plates were sealed with Parafilm®, and incubated for 17 hours, and the bMIC was measured at the end of the incubation by visual inspection. After the bMIC run, the rinse steps were repeated to remove planktonic cells, and the pins were inserted into a 96-well plate that was pre-aliquoted with drug-free nutrient media (aliquots of 150 μL/well). The plates were sealed with Parafilm®, incubated for 24 hours, and the MBEC was measured at the end of the incubation by visual inspection.
After performing bMIC experiments, biofilms growing on the pins of the lid were transferred to nutrient media devoid of antibiotics to measure the minimum concentration of antibiotic that prevented planktonic growth from biofilms in antibiotic-free nutrient media (MBEC). MBEC indicates whether the exposure to antimicrobial agent used during the bMIC experiment sterilized biofilm-associated cells. […] CCCP was the only effective antibiotic against S. aureus biofilms. Since CCCP was not as effective as DCAP at killing stationary cells, it was hypothesized that this variability in efficacy of membrane-active drugs is in part caused by changes in membrane composition (i.e., membrane proteins and lipid content) at different developmental stages of bacterial cells. […]

S. aureus FRI 100 [7] = experiment: Minimum biofilm eradication concentration (MBEC); type: cell-based, Staphylococcus aureus; details: S. aureus FRI 100 biofilm
Procedure: as §6
After performing bMIC experiments, biofilms growing on the pins of the lid were transferred to nutrient media devoid of antibiotics to measure the minimum concentration of antibiotic that prevented planktonic growth from biofilms in antibiotic-free nutrient media (MBEC). […]

E. coli BW25113 ΔtolC = experiment: MIC of DCAP analogs, LB media, macrodilution (CLSI); type: cell-based; details: Escherichia coli
Procedure: Luria-Bertani (LB) media (10 g/L tryptone, 10 g/L NaCl, 5 g/L yeast extract, pH 7.0) was used to grow all the strains represented in Tables 5 and 6. All the cultures were grown at 37° C. All the E. coli strains were grown while shaking at 200 rpm and the clinical pathogens were statically incubated. […]

Acinetobacter baumannii = experiment: MIC of DCAP analogs, LB media, microdilution (CLSI); type: cell-based; details: microdilution (Table 6)
Procedure: (§7) Luria-Bertani (LB) media (10 g/L tryptone, 10 g/L NaCl, 5 g/L yeast extract, pH 7.0) was used to grow all the strains represented in Tables 5 and 6. All the cultures were grown at 37° C. All the E. coli strains were grown while shaking at 200 rpm and the clinical pathogens were statically incubated.
(§8) For clinical pathogenic organisms including S. typhimurium, V. cholera, S. boydii, K pneumonia, E. aerogenes, A. baumannii, E. tarda, and M. morganii strains, liquid LB media in 96-well microplates (100 μL/well) and the microdilution method from the CLSI guidelines were used.

Edwardsiella tarda = experiment: as above; type: cell-based; details: microdilution (Table 6)
Procedure: as §7, §8

Enterobacter aerogenes = experiment: as above; type: cell-based; details: Klebsiella aerogenes, microdilution (Table 6)
Procedure: as §7, §8

Klebsiella pneumonia = experiment: as above; type: cell-based; details: Klebsiella pneumoniae, microdilution (Table 6)
Procedure: as §7, §8

Morganella morganii = experiment: as above; type: cell-based; details: microdilution (Table 6)
Procedure: as §7, §8

Salmonella typhimurium = experiment: as above; type: cell-based; details: Salmonella enterica, microdilution (Table 6)
Procedure: as §7, §8

Shigella boydii = experiment: as above; type: cell-based; details: microdilution (Table 6)
Procedure: as §7, §8

Vibrio cholera = experiment: as above; type: cell-based; details: Vibrio cholerae
Procedure: as §7, §8

[8] = BW25113, read-out: MIC (ΔtolC E. coli)

CC1(C)S[C@@H]2[C@H](NC(=O)[C@H](N)c3ccccc3)C(=O)N2[C@H]1C(=O)O [Amp, ampicillin]
MIC (C. crescentus CB15N [1]): 50 µg/mL
MSC (C. crescentus CB15N [2]): >400 µg/mL
MSC (S. aureus FRI 100 [3]): 100 µg/mL
bMIC (C. crescentus CB15N [4]): 100 µg/mL
bMIC (S. aureus FRI 100 [5]): 0.8 µg/mL
MBEC (C. crescentus CB15N [6]): >400 µg/mL
MBEC (C. crescentus CB15N [6]; listed as ampicillin): > 400 µM
MBEC (S. aureus FRI 100 [7]): >200 µg/mL

OCC(CO)(CO)NC[C@@H](O)Cn1c2ccc(Cl)cc2c2cc(Cl)ccc21 [Compound 2]
MIC (E. coli BW25113 ΔtolC; [8]): 20 µM

OCC(CO)(CO)NC[C@H](O)Cn1c2ccc(Cl)cc2c2cc(Cl)ccc21 [Compound 3]
MIC (E. coli BW25113 ΔtolC; [8]): 20 µM

OCC(CO)(CO)NC[C@@H](O)Cn1c2ccccc2c2ccccc21 [Compound 4]
MIC (E. coli BW25113 ΔtolC; [8]): > 80 µM

OCC(CO)NCC(O)Cn1c2ccc(Cl)cc2c2cc(Cl)ccc21 (stereo not drawn) [Compound 5]
MIC (E. coli BW25113 ΔtolC; [8]): 20 µM

CCC(CC)NCC(O)Cn1c2ccc(Cl)cc2c2cc(Cl)ccc21 (stereo not drawn) [Compound 6]
MIC (E. coli BW25113 ΔtolC; [8]): 5 µM

CCCCCNCC(O)Cn1c2ccc(Cl)cc2c2cc(Cl)ccc21 (stereo not drawn) [Compound 7]
MIC (E. coli BW25113 ΔtolC; [8]): 5 µM

CC(C)CCNCC(O)Cn1c2ccc(Cl)cc2c2cc(Cl)ccc21 (stereo not drawn) [Compound 8]
MIC (E. coli BW25113 ΔtolC; BW25113): 2.5 µM
MIC (E. coli BW25113 ΔtolC; [8]): 2.5 µM
MIC (Acinetobacter baumannii): 12.5 µM
MIC (Edwardsiella tarda): 25 µM
MIC (Enterobacter aerogenes): 50 µM
MIC (Klebsiella pneumonia): 50 µM
MIC (Morganella morganii): 50 µM
MIC (Salmonella typhimurium): 50 µM
MIC (Shigella boydii): 25 µM
MIC (Vibrio cholera): 6.25 µM

OC(CNC1CCCCC1)Cn1c2ccc(Cl)cc2c2cc(Cl)ccc21 (stereo not drawn) [Compound 9]
MIC (E. coli BW25113 ΔtolC; BW25113): 2.5 µM
MIC (E. coli BW25113 ΔtolC; [8]): 2.5 µM
MIC (Acinetobacter baumannii): 100 µM
MIC (Edwardsiella tarda): 200 µM
MIC (Enterobacter aerogenes): > 200 µM
MIC (Klebsiella pneumonia): > 200 µM
MIC (Morganella morganii): > 200 µM
MIC (Salmonella typhimurium): > 200 µM
MIC (Shigella boydii): 200 µM
MIC (Vibrio cholera): 25 µM

CCC(CC)CNCC(O)Cn1c2ccc(Cl)cc2c2cc(Cl)ccc21 (stereo not drawn) [Compound 10]
MIC (E. coli BW25113 ΔtolC; BW25113): 2.5 µM
MIC (E. coli BW25113 ΔtolC; [8]): 2.5 µM
MIC (Acinetobacter baumannii): 25 µM
MIC (Edwardsiella tarda): 12.5 µM
MIC (Enterobacter aerogenes): > 200 µM
MIC (Klebsiella pneumonia): > 200 µM
MIC (Morganella morganii): > 200 µM
MIC (Salmonella typhimurium): 200 µM
MIC (Shigella boydii): 25 µM
MIC (Vibrio cholera): 6.25 µM

CC(C)(C)NCC(O)Cn1c2ccc(Cl)cc2c2cc(Cl)ccc21 (stereo not drawn) [Compound 11]
MIC (E. coli BW25113 ΔtolC; [8]): 40 µM

OCC(CO)(CO)NCC(O)CN1CCc2cc(Cl)ccc21 (stereo not drawn) [Compound 12]
MIC (E. coli BW25113 ΔtolC; [8]): > 40 µM

CC(CO)(CO)NCC(O)Cn1c2ccc(Cl)cc2c2cc(Cl)ccc21 (stereo not drawn) [Compound 13]
MIC (E. coli BW25113 ΔtolC; [8]): 40 µM

CCC(CO)(CO)NCC(O)Cn1c2ccc(Cl)cc2c2cc(Cl)ccc21 (stereo not drawn) [Compound 14]
MIC (E. coli BW25113 ΔtolC; [8]): 20 µM

Source: patent US10314816B2, “Antimicrobial compounds, compositions and methods of use thereof” (Wisconsin Alumni Research Foundation, priority 2012, dated 2019)
